Counter-ions that a name gives are not always drawn. Like-named read-outs stand apart in the source and are kept apart here.
How the values were obtained:
Assay type in all cases: biochemical
[1] = target: T1, human JAK1 (a.a. 837-1142) (Homo sapiens, UniProt P23458); experiment: In vitro JAK kinase assay (HTRF, phosphorylation of a biotinylated peptide), JAK1; details: read-out: JAK1 IC50
T1 construct: human JAK1 (a.a. 837-1142); His tag (N); made in house; host or cells: insect cells (baculovirus)
Procedure, shortened: (§1)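 Kinase reactions ran at room temperature for 1 h with ATP matched per isoform (JAK1 90 μM, JAK2 30 μM, JAK3 3 μM). After an EDTA stop, the phosphorylated biotin-peptide was read by HTRF using Eu-Py20 and SA-APC after 40 min binding.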

[2] = target: TYK2 (Homo sapiens, UniProt P29597); experiment: TYK2 kinase inhibition (Table A1)
[3] = target: T2, human JAK2 (a.a. 828-1132) (Homo sapiens, UniProt O60674); experiment: In vitro JAK kinase assay (HTRF, phosphorylation of a biotinylated peptide), JAK2
T2 construct: JAK2 (a.a. 828-1132); His tag (N); made in house; host or cells: insect cells (baculovirus)
Procedure, shortened: as §1

[4] = target: T3, human JAK3 (a.a. 781-1124) (Homo sapiens, UniProt P52333); experiment: In vitro JAK kinase assay (HTRF, phosphorylation of a biotinylated peptide), JAK3
T3 construct: JAK3 (a.a. 781-1124); His tag (N); made in house; host or cells: insect cells (baculovirus)
Procedure, shortened: as §1

T3 sequence (P52333 781-1124): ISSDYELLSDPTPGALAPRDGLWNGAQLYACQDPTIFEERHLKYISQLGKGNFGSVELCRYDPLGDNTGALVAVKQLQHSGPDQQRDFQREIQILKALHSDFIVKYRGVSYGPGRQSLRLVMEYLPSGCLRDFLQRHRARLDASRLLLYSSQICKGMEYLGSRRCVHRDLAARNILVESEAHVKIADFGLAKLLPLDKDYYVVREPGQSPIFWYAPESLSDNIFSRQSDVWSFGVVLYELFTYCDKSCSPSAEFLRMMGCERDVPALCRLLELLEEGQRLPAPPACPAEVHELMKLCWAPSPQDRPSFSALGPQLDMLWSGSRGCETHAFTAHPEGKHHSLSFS
Sequence of TYK2 (P29597 whole entry): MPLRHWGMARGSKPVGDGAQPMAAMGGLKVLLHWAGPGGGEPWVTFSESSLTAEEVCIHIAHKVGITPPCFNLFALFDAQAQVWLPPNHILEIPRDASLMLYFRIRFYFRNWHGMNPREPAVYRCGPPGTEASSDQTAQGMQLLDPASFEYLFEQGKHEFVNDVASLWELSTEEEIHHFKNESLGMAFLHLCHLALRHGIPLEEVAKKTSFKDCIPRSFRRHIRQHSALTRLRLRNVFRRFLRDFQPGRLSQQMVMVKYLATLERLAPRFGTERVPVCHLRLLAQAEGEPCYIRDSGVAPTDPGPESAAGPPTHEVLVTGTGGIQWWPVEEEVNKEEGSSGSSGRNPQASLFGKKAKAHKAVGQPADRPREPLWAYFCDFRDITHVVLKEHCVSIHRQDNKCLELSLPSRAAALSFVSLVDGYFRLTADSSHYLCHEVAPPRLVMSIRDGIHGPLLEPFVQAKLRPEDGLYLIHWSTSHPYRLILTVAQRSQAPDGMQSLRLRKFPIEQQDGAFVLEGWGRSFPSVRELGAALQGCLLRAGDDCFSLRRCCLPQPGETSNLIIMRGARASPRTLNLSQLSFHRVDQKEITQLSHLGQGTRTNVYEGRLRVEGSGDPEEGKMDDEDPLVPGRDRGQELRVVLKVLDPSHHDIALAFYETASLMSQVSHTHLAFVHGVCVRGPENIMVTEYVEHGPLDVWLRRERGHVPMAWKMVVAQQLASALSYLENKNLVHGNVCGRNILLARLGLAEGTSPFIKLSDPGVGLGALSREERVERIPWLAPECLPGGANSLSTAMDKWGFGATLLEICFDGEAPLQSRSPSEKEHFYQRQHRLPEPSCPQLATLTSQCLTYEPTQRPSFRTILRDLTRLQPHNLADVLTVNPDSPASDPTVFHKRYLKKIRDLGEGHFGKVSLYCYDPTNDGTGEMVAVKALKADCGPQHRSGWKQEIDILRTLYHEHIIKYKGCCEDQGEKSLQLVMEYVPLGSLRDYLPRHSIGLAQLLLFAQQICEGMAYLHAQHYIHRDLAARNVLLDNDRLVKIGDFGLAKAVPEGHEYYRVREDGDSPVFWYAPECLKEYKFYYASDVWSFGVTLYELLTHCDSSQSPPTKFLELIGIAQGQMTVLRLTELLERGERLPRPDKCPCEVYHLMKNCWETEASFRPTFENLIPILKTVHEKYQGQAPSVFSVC
T1 sequence (P23458 849-1154): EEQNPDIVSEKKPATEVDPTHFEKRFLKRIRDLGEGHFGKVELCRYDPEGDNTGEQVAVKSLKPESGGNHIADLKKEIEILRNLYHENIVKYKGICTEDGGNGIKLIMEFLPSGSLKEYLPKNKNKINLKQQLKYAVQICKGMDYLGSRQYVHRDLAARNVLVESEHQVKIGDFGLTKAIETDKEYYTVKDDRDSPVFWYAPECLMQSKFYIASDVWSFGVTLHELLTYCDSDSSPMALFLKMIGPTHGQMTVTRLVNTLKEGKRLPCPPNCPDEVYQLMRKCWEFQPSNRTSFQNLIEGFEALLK
T2 sequence (O60674 828-1132): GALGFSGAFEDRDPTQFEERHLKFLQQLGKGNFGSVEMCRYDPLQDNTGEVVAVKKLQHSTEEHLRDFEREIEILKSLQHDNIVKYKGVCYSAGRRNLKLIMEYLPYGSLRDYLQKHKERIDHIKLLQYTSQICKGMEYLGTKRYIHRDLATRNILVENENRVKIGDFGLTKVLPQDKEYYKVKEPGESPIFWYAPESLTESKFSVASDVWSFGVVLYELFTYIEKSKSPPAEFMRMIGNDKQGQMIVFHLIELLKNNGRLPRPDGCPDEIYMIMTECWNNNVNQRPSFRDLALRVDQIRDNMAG

Compound	IC50 ([1]; Table D1) [nM]	IC50 ([2]; Table D1) [nM]	IC50 ([3]; Table D1) [nM]	IC50 ([4]; Table D1) [nM]	other results
O=C(C[C@@H]1CCCNC1)Nc1ccc2cc1CCc1cccc(c1)Nc1ncc(Cl)c(n1)N2 [Example D192, N-[6-Chloro-2,4,8,22-tetraazatetracyclo[14.3.1.1(3,7).1(9,13)]docosa-1(20),3(22),4,6,9(21),10,12,16,18-nonaen-12-yl]-2-[(3S)-piperidin-3-yl]acetamidebis(trifluoroacetate)]	4.7	13	9.8	104	
O=C(Cn1c(=O)oc2c3cc(cc21)Nc1nc(ncc1Cl)Nc1cccc(c1)CC3)Nc1ccccc1 [Example D185, 2-[4-Chloro-19-oxo-18-oxa-2,6,8,20,25-pentaazapentacyclo[14.6.1.1(3,7).1(9,13).0(17,21)]pentacosa-1(23),3(25),4,6,9(24),10,12,16,21-nonaen-20-yl]-N-phenylacetamide trifluoroacetate]	108	742	49	196	
O=C(CC1CN(c2nc3ccccc3s2)C1)Nc1ccc2cc1CCc1cncc(c1)Nc1ncc(Cl)c(n1)N2 [Example D138, 2-[1-(1,3-Benzothiazol-2-yl)azetidin-3-yl]-N-[6-chloro-2,4,8,18,22-pentaazatetracyclo[14.3.1.1(3,7).1(9,13)]docosa-1(20),3(22),4,6,9(21),10,12,16,18-nonaen-12-yl]acetamide tris(trifluoroacetate)]	12	500	96	> 1000	
O=C(Cc1ccco1)Nc1ccc2cc1CCc1cccc(c1)Nc1ncc(Cl)c(n1)N2 [Example C36, N-[6-Chloro-2,4,8,22-tetraazatetracyclo[14.3.1.1(3,7).1(9,13)]docosa-1(20),3(22),4,6,9(21),10,12,16,18-nonaen-12-yl]-2-(2-furyl)acetamide trifluoroacetate]					IC50 [1]: 33 nM; IC50 [2]: 103 nM; IC50 [3]: 42 nM; IC50 [4]: 663 nM
CC(=O)N1CCC(CCNc2ccc3cc2CCc2cncc(c2)Nc2ncc(Cl)c(n2)N3)CC1 [Example D219, N-[2-(1-Acetylpiperidin-4-yl)ethyl]-6-chloro-2,4,8,18,22-pentaazatetracyclo[14.3.1.1(3,7).1(9,13)]docosa-1(20),3(22),4,6,9(21),10,12,16,18-nonaen-12-amine tris(trifluoroacetate)]	14	38	49	> 400	
Cc1occc1NC(=O)N1CCC(CCOc2ccc3cc2CCc2cncc(c2)Nc2ncc(Cl)c(n2)N3)CC1 [Example D164, 4-(2-{[6-Chloro-2,4,8,18,22-pentaazatetracyclo[14.3.1.1(3,7).1(9,13)]docosa-1(20),3(22),4,6,9(21),10,12,16,18-nonaen-12-yl]oxy}ethyl)-N-(2-methyl-3-furyl)piperidine-1-carboxamide bis(trifluoroacetate)]	39	> 400	75	> 400	
Cc1ccc(C(=O)N2Cc3cccc(c3)Nc3ncc(Cl)c(n3)Nc3cccc2c3)cc1 [Example C24, 6-Chloro-14-(4-methylbenzoyl)-2,4,8,14,22-pentaazatetracyclo[14.3.1.1(3,7).1(9,13)]docosa-1(20),3(22),4,6,9(21),10,12,16,18-nonaene]					IC50 [1]: 95 nM; IC50 [2]: 1030 nM; IC50 [3]: 154 nM; IC50 [4]: 1200 nM
CC(=O)N1CCC[C@@H](CC(=O)Nc2ccc3cc2CCc2cccc(c2)Nc2ncc(Cl)c(n2)N3)C1 [Example D200, 2-[(3S)-1-Acetylpiperidin-3-yl]-N-[6-chloro-2,4,8,22-tetraazatetracyclo[14.3.1.1(3,7).1(9,13)]docosa-1(20),3(22),4,6,9(21),10,12,16,18-nonaen-12-yl]acetamide trifluoroacetate]	8.1	12	9.3	34	
COc1ccccc1N1CCN(C(=O)COc2ccc3cc2CCc2cncc(c2)Nc2ncc(Cl)c(n2)N3)CC1 [Example D241, 6-Chloro-12-{2-[4-(2-methoxyphenyl)piperazin-1-yl]-2-oxoethoxy}-2,4,8,18,22-pentaazatetracyclo[14.3.1.1(3,7).1(9,13)]docosa-1(20),3(22),4,6,9(21),10,12,16,18-nonaene tris(trifluoroacetate)]	41	> 400	180	> 400	
O=C(Nc1ccccc1)N1CCN(c2ccc3cc2CCc2cccc(c2)Nc2ncc(Cl)c(n2)N3)CC1 [Example D92, 4-[6-Chloro-2,4,8,22-tetraazatetracyclo[14.3.1.1(3,7).1(9,13)]docosa-1(20),3(22),4,6,9(21),10,12,16,18-nonaen-12-yl]-N-phenylpiperazine-1-carboxamide bis(trifluoroacetate)]	16	25	4.9	36	
O=C(NCc1ccco1)Nc1ccc2cc1CCc1cncc(c1)Nc1ncc(Cl)c(n1)N2 [Example B134, N-[6-Chloro-2,4,8,18,22-pentaazatetracyclo[14.3.1.1(3,7).1(9,13)]docosa-1(20),3(22),4,6,9(21),10,12,16,18-nonaen-12-yl]-N′-(2-furylmethyl)urea bis(trifluoroacetate)]					IC50 ([1]; Table B1): 0.75 nM; IC50 ([2]; Table B1): 2.8 nM; IC50 ([3]; Table B1): 1.7 nM; IC50 ([4]; Table B1): 23 nM
CNC(=O)N1CCN(C(=O)COc2ccc3cc2CCc2cncc(c2)Nc2ncc(Cl)c(n2)N3)CC1 [Example D265, 4-({[6-Chloro-2,4,8,18,22-pentaazatetracyclo[14.3.1.1(3,7).1(9,13)]docosa-1(20),3(22),4,6,9(21),10,12,16,18-nonaen-12-yl]oxy}acetyl)-N-methylpiperazine-1-carboxamide bis(trifluoroacetate)]	34	> 400	235	> 400	
COCC(=O)N1CCN(C(=O)COc2ccc3cc2CCc2cncc(c2)Nc2ncc(Cl)c(n2)N3)CC1 [Example D262, 6-Chloro-12-{2-[4-(methoxyacetyl)piperazin-1-yl]-2-oxoethoxy}-2,4,8,18,22-pentaazatetracyclo[14.3.1.1(3,7).1(9,13)]docosa-1(20),3(22),4,6,9(21),10,12,16,18-nonaene bis(trifluoroacetate)]	150	> 400	> 400	> 400	
O=C(Nc1ccccc1)N1CCC(CCOc2ccc3cc2CCc2cncc(c2)Nc2ncc(Cl)c(n2)N3)CC1 [Example D162, 4-(2-{[6-Chloro-2,4,8,18,22-pentaazatetracyclo[14.3.1.1(3,7).1(9,13)]docosa-1(20),3(22),4,6,9(21),10,12,16,18-nonaen-12-yl]oxy}ethyl)-N-phenylpiperidine-1-carboxamide bis(trifluoroacetate)]	10	> 400	71	> 400	
N#Cc1ccc(NC(=O)N2CCN(c3ccc4cc3CCc3cccc(c3)Nc3ncc(Cl)c(n3)N4)CC2)cc1 [Example D93, 4-[6-Chloro-2,4,8,22-tetraazatetracyclo[14.3.1.1(3,7).1(9,13)]docosa-1(20),3(22),4,6,9(21),10,12,16,18-nonaen-12-yl]-N-(4-cyanophenyl)piperazine-1-carboxamide bis(trifluoroacetate)]	46	71	14	69	
